This note sets out measurements from US8735433B1, “Aryl oxadiazole derivatives as sphingosine 1-phosphate (S1P) receptor modulators” (Allergan, Inc., priority 2012, dated 2014).

Molecules are shown by their SMILES. pEC50: −log10 of the molar value.

This assay deals with T1, human S1P1 receptor (Homo sapiens, UniProt P21453).
T1 construct: expressed in transfected cells; membrane preparation
T1 sequence (P21453 whole entry): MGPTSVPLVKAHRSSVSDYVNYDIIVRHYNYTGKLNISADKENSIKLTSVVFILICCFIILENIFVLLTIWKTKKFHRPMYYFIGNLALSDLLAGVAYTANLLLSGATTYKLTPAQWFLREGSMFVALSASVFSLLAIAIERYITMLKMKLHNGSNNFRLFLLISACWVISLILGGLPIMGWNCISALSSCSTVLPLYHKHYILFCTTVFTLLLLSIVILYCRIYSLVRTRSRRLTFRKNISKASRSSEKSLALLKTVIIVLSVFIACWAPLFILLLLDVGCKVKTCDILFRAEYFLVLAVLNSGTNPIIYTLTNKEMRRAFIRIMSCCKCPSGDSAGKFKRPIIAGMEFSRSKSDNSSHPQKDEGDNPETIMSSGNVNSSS
The experiment in a line: GTP γ35S binding assay for S1P1 activity. The format is biochemical. The settings on record: membranes of cells stably expressing the S1P1 receptor, test compounds 0.08 to 5,000 nM, 30 min at 25° C. The procedure: Compounds were synthesized and tested for S1P1 activity using the GTP γ^35S binding assay. These compounds may be assessed for their ability to activate or block activation of the human S1P1 receptor in cells stably expressing the S1P1 receptor.
GTP γ^35S binding was measured in the medium containing (mM) HEPES 25, pH 7.4, MgCl2 10, NaCl 100, dithitothreitol 0.5, digitonin 0.003%, 0.2 nM GTP γ^35S, and 5 μg membrane protein in a volume of 150 μl. Test compounds were included in the concentration range from 0.08 to 5,000 nM unless indicated otherwise. Membranes were incubated with 100 μM 5′-adenylylimmidodiphosphate for 30 min, and subsequently with 10 μM GDP for 10 min on ice. Drug solutions and membrane were mixed, and then reactions were initiated by adding GTP γ^35S and continued for 30 min at 25° C. Reaction mixtures were filtered over Whatman GF/B filters under vacuum, and washed three times with 3 mL of ice-cold buffer (HEPES 25, pH7.4, MgCl2 10 and NaCl 100). Filters were dried and mixed with scintillant, and counted for ^35S activity using a β-counter. Agonist-induced GTP γ^35S binding was obtained by subtracting that in the absence of agonist. Binding data were analyzed using a non-linear regression method. In case of antagonist assay, the reaction mixture contained 10 nM S1P in the presence of test antagonist at concentrations ranging from 0.08 to 5000 nM.
As for `Cc1ccc(CC(c2nc(-c3ccc(CCC(N)(CO)CO)cc3)no2)c2cccs2)cc1C` (stereo not drawn), the pEC50 (usually the negative decadic logarithm of the EC50, by convention in mol/L) is 5.92. On to `Cc1ccc(CC(c2cccc(Cl)c2)c2nc(-c3ccc(CCC(N)(CO)CO)cc3)no2)cc1C` (stereo not drawn) [2-amino-2-[2-(4-{5-[1-(3-chlorophenyl)-2-(3,4-dimethylphenyl)ethyl]-1,2,4-oxadiazol-3-yl}phenyl)ethyl]propane-1,3-diol], for which the pEC50 was 6.76. This pEC50 lies 0.84 log units higher than the previous one. As for `Cc1ccc(CC(c2cc(F)cc(F)c2)c2nc(-c3ccc(CCC(N)(CO)CO)cc3)no2)cc1C` (stereo not drawn) [Compound 1, 2-amino-2-[2-(4-{5-[1-(3,5-difluorophenyl)-2-(3,4-dimethylphenyl)ethyl]-1,2,4-oxadiazol-3-yl}phenyl)ethyl]propane-1,3-diol], the pEC50 was 7.06. This pEC50 is 0.30 log units higher than that of the compound before.
